Results on twelve compounds are retold here after US11034658B2, “Pyridinyl pyrazoles as modulators of RORγT” (Janssen Pharmaceutica NV, priority 2018, dated 2021).

For assay [1], the system named is IL-17 production by human CD4+ T cells under Th17 differentiation. As to the kind of experiment: Human Th17 assay (IL-17 production by CD4 T cells). The conditions noted are these: 72 h, IL-17 after 3 days. In kind it is cell-based. The text has this: The human Th17 assay tests the effect of RORγt modulatory compounds on IL-17 production by CD4 T cells under conditions which favor Th17 differentiation. Total CD4^+ T cells were isolated from the peripheral blood mononuclear cells (PBMC) of healthy donors using a CD4^+ T cell isolation kit II, following the manufacturer's instructions (Miltenyi Biotec). Cells were resuspended in a medium of RPMI-1640 supplemented with 10% fetal bovine serum, penicillin, streptomycin, glutamate, and β-mercaptoethanol and were added to 96-well plates at 1.5×10^5 per 100 μL per well. 50 μL of compound at titrated concentrations in DMSO were added into each well at final DMSO concentration at 0.2%. Cells were incubated for 1 hour, then 50 μL of Th17 cell differentiation medium was added to each well. The final concentrations of antibodies and cytokines (R&D Systems) in differentiation medium were: 3×10^6/mL anti-CD3/CD28 beads (prepared using human T cell activation/expansion kit, Miltenyi Biotec), 10 μg/mL anti-IL4, 10 μg/mL anti-IFNγ, 10 ng/mL IL1β, 10 ng/mL IL23, 50 ng/mL IL6, 3 ng/mL TGFβ and 20 U/mL IL2. Cells were cultured at 37° C. and 5% CO2 for 3 days. Supernatants were collected and the accumulated IL-17 in culture was measured by using MULTI-SPOT® Cytokine Plate following manufacture's instruction (Meso Scale Discovery). The plate was read using Sector Imager 6000, and IL-17 concentration was extrapolated from the standard curve. The IC50s were determined by GraphPad.

Assay [2] concerns the target full-length human RORγt (GAL4-DBD-RORγt fusion) in HEK293T cells (Homo sapiens (Human), UniProt P51449). As to the kind of experiment: RORγt (full-length human) reporter assay, conditions A or B. Type of assay: cell-based. The conditions noted are these: for IC50: HEK293T cells, read-out: RORγt (FL) Reporter Assay A or B, IC50; for inhibition at 3 µM: 3 μM compound concentration (footnote *). The essentials: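 HEK293T cells expressing GAL4-DBD-RORγt fusion (96- or 384-well formats, DMEM/10% FBS) exposed to compound overnight (16–20 h). Firefly luciferase normalized to DMSO and saturating reference compound, then to Renilla; IC50 from dose curve, % inhibition versus DMSO.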
(In a reporter assay the amount or activity of a reporter protein is the signal.)

Assay [3] concerns the target human RORγt ligand binding domain (RORγt LBD) (Homo sapiens (Human), UniProt P51449). Kind of assay: RORγt ThermoFluor assay. (Differential scanning fluorimetry follows unfolding on heating by fluorescence.)
Assay [4] has as its system Th17-dependent learned helplessness. The conditions noted are these: mice; cited from earlier work.
The next assay has as its system obese diabetic mice. To be noted: cited from earlier work.
Setting [5] is: HEK-293T, read-out: RORγt (FL) Reporter Assay A or B, % inhibition.

Sequence of full-length human RORγt (GAL4-DBD-RORγt fusion) in HEK293T cells (P51449 other isoform, or with tags, fused parts or gaps): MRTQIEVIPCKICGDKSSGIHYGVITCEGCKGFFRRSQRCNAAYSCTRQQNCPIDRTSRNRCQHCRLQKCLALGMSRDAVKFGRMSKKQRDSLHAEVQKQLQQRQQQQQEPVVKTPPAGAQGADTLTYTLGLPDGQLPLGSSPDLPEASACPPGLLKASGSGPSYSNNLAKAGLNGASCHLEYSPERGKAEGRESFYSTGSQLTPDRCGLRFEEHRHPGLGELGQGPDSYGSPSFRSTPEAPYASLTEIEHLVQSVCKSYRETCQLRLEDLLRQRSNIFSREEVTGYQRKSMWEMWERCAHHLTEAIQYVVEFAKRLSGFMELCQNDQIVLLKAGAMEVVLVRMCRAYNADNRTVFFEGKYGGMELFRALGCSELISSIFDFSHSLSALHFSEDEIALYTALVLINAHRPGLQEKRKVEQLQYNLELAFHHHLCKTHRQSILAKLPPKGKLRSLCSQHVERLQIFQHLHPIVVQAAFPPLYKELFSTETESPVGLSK
Sequence of human RORγt ligand binding domain (RORγt LBD) (P51449 other isoform, or with tags, fused parts or gaps): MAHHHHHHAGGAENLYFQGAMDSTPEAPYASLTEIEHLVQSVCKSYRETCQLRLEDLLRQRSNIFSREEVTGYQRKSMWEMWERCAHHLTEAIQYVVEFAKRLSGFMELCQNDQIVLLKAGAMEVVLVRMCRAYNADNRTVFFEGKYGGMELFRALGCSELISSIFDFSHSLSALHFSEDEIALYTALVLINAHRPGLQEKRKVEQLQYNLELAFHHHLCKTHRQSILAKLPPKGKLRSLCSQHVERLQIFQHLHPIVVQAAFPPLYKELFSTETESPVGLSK

What is called IC50 is the concentration that inhibits the measured activity by half. A word on the inhibition: it is the relative decrease from the control value, in per cent. Usually Kd stands for the concentration at which binding is half-saturated. Low readings indicate higher affinity, high ones lower affinity. As for `CCc1cc(C[C@@H](C)C(F)(F)F)ncc1-c1c(Cl)c(C(=O)NC[C@H]2CC[C@H](S(C)(=O)=O)CC2)nn1CC` (relative stereo) [Example 57, 4-Chloro-1-ethyl-5-(4-ethyl-6-((R*)-3,3,3-trifluoro-2-methylpropyl)pyridin-3-yl)-N-((1r,4R)-4-(methylsulfonyl)cyclohexyl)methyl)-1H-pyrazole-3-carboxamide], the IC50 in assay [1] turned out to be 450 nM; in assay [2] it was 340 nM. For the same compound, the inhibition at 3 µM in assay [2] (setting [5]) came out at 43%. In assay [3], the affinity, expressed as Kd, was 20 nM.
In the case of `CCc1cc(C[C@@H](C)C(F)(F)F)ncc1-c1c(C)c(C(=O)NC[C@H]2CC[C@H](S(C)(=O)=O)CC2)nn1CC` (relative stereo) [Example 58, 1-Ethyl-5-(4-ethyl-6-((R*)-3,3,3-trifluoro-2-methylpropyl)pyridin-3-yl)-4-methyl-N-((1r,4R)-4-(methylsulfonyl)cyclohexyl)methyl)-1H-pyrazole-3-carboxamide], the IC50 in assay [1] is 730 nM; in assay [2], greater than 2900 nM. Also, the inhibition at 3 µM in assay [2] (setting [5]) turned out to be 23%. In assay [3], this compound displayed a Kd of 43 nM.
Consider `CCc1cc(C[C@@H](C)C(F)(F)F)ncc1-c1c(Cl)c(C(=O)NC[C@]2(O)CC[C@@H](S(C)(=O)=O)CC2)nn1CC` (single isomer, unassigned) [Example 56, 4-Chloro-1-ethyl-5-(4-ethyl-6-((R*)-3,3,3-trifluoro-2-methylpropyl)pyridin-3-yl)-N-(((1s,4S)-1-hydroxy-4-(methylsulfonyl)cyclohexyl)methyl)-1H-pyrazole-3-carboxamide], for which the values for the IC50 in assay [1] and in assay [2] were 370 nM and 2300 nM, respectively. In addition, in assay [2] (setting [5]), the inhibition at 3 µM is 30%. The affinity in assay [3], expressed as Kd, was 120 nM.
As to `CCn1nc(C(=O)NC[C@H]2CC[C@H](S(C)(=O)=O)CC2)c(Cl)c1-c1cnc(C[C@H](C)C(F)(F)F)cc1OC` (single isomer, unassigned) [Example 62, 4-Chloro-1-ethyl-5-(4-methoxy-6-((S*)-3,3,3-trifluoro-2-methylpropyl)pyridin-3-yl)-N-((1r,4r)-4-(methylsulfonyl)cyclohexyl)methyl)-1H-pyrazole-3-carboxamide], the IC50 in assay [1] was 81 nM; in assay [2], 180 nM. In addition, the inhibition at 2 µM in assay [2] (HEK-293T, 2 μM compound concentration, read-out: RORγt (FL) Reporter Assay A or B, % inhibition) is 89%. Further, the Kd in assay [3] was found to be 17 nM.
As for `CCn1nc(C(=O)NC[C@]2(O)CC[C@@H](S(C)(=O)=O)CC2)c(C)c1-c1cnc(CC(C)(C)C(F)(F)F)cc1OC(F)F` [Example 8, 5-(4-(Difluoromethoxy)-6-(3,3,3-trifluoro-2,2-dimethylpropyl)pyridin-3-yl)-1-ethyl-N-(((1s,4s)-1-hydroxy-4-(methylsulfonyl)cyclohexyl)methyl)-4-methyl-1H-pyrazole-3-carboxamide], the results for the IC50 in assay [1] and in assay [2] were 51 nM and 56 nM, respectively. Moreover, the inhibition at 3 µM in assay [2] (setting [5]) was found to be 100%. The same compound had an equilibrium dissociation constant (Kd) in assay [3] of 11 nM.
In the case of `CCn1nc(C(=O)NC[C@H]2CC[C@H](S(C)(=O)=O)CC2)c(Cl)c1-c1cnc(CC(C)(C)C(F)(F)F)cc1OC(F)F` [Example 9, 4-Chloro-5-(4-(difluoromethoxy)-6-(3,3,3-trifluoro-2,2-dimethylpropyl)pyridin-3-yl)-1-ethyl-N-(((1r,4r)-4-(methylsulfonyl)cyclohexyl)methyl)-1H-pyrazole-3-carboxamide], the IC50 worked out at 11 nM in assay [1] and 8.1 nM in assay [2]. Besides, the inhibition at 3 µM in assay [2] (setting [5]) amounted to 117%. The Kd in assay [3] came to 0.75 nM.
As for `CCn1nc(C(=O)NC[C@]2(O)CC[C@@H](S(C)(=O)=O)CC2)c(Cl)c1-c1cnc(CC(C)(C)C(F)(F)F)cc1OC(F)F` [Example 10, 4-Chloro-5-(4-(difluoromethoxy)-6-(3,3,3-trifluoro-2,2-dimethylpropyl)pyridin-3-yl)-1-ethyl-N-(((1s,4s)-1-hydroxy-4-(methylsulfonyl)cyclohexyl)methyl)-1H-pyrazole-3-carboxamide], the IC50 in assay [1] stood at 48 nM; in assay [2], 14 nM. The inhibition at 3 µM in assay [2] (setting [5]) stood at 98%. Moreover, the Kd in assay [3] worked out at 3.2 nM.
Take `CCn1nc(C(=O)NC[C@H]2CC[C@H](S(C)(=O)=O)CC2)c(C)c1-c1cnc(CC(C)(C)C(F)(F)F)cc1OC(F)F` [Example 13, 5-(4-(Difluoromethoxy)-6-(3,3,3-trifluoro-2,2-dimethylpropyl)pyridin-3-yl)-1-ethyl-4-methyl-N-(((1r,4r)-4-(methylsulfonyl)cyclohexyl)methyl)-1H-pyrazole-3-carboxamide]: the IC50 in assay [1] was found to be 38 nM; in assay [2], 11 nM. Besides, the inhibition at 3 µM in assay [2] (setting [5]) amounted to 91%. The Kd in assay [3] came to 2.2 nM.
For `CCn1nc(C(=O)NC[C@H]2CC[C@H](S(C)(=O)=O)CC2)c(C)c1-c1cnc(CC(C)(C)C(F)(F)F)cc1C(F)F` [Example 29, 5-(4-(Difluoromethyl)-6-(3,3,3-trifluoro-2,2-dimethylpropyl)pyridin-3-yl)-1-ethyl-4-methyl-N-(((1r,4r)-4-(methylsulfonyl)cyclohexyl)methyl)-1H-pyrazole-3-carboxamide] the same measures were 210 nM, 360 nM, 39% and 24 nM.
Consider `CCn1nc(C(=O)NC[C@H]2CC[C@H](S(C)(=O)=O)CC2)c(Cl)c1-c1cnc(CC(C)(C)C(F)F)cc1OC(F)F` [Example 37, 4-Chloro-5-(6-(3,3-difluoro-2,2-dimethylpropyl)-4-(difluoromethoxy)pyridin-3-yl)-1-ethyl-N-(((1r,4r)-4-(methylsulfonyl)cyclohexyl)methyl)-1H-pyrazole-3-carboxamide], for which the IC50 worked out at 34 nM in assay [1] and 21 nM in assay [2]. The inhibition at 3 µM in assay [2] (setting [5]) came out at 98%. Further, the Kd in assay [3] came out at 3.5 nM.
In the case of `CC(=O)Nc1nc(C)c(S(=O)(=O)Nc2ccc(C(O)(C(F)(F)F)C(F)(F)F)cc2)s1` [SR1001], the Th17-dependent learned helplessness entry in assay [4] is listed as “reduced Th17-dependent learned helplessness”.
On to `CC(=O)N1CCN(Cc2ccc(-c3ccc(C(O)(C(F)(F)F)C(F)(F)F)cc3)cc2)CC1` [SR1555], for which, in the assay with obese diabetic mice, the body weight entry is listed as “reduced body weight”, the fat mass entry is given as “significant reduction in fat mass”, the food intake entry is “modest reduction in food intake” and the insulin sensitivity result is given as “improved insulin sensitivity”.
